Test results taken from US10266537B2, “3-acetylenyl-pyrazole-pyrimidine derivative, and preparation method therefor and uses thereof” (Si Chuan University, priority 2015, dated 2019).
Each block holds one molecule with its values, some of them ahead of it.

Assays:
THP-1 = assay: Cell proliferation inhibition assay (MTT); format: cell-based; conditions: Homo sapiens, 72 hours, read-out: Proliferation inhibitory activity IC50
H4 = assay: Cell proliferation inhibition assay (MTT); format: cell-based; conditions: Homo sapiens, 72 hours, read-out: Proliferation inhibitory activity IC50
FGFR2 = FGFR2 (Homo sapiens (Human), UniProt P21802); assay: Kinase inhibition assay (KinaseProfiler, 33P-ATP); format: biochemical
Sequence of FGFR2 (P21802 22-821): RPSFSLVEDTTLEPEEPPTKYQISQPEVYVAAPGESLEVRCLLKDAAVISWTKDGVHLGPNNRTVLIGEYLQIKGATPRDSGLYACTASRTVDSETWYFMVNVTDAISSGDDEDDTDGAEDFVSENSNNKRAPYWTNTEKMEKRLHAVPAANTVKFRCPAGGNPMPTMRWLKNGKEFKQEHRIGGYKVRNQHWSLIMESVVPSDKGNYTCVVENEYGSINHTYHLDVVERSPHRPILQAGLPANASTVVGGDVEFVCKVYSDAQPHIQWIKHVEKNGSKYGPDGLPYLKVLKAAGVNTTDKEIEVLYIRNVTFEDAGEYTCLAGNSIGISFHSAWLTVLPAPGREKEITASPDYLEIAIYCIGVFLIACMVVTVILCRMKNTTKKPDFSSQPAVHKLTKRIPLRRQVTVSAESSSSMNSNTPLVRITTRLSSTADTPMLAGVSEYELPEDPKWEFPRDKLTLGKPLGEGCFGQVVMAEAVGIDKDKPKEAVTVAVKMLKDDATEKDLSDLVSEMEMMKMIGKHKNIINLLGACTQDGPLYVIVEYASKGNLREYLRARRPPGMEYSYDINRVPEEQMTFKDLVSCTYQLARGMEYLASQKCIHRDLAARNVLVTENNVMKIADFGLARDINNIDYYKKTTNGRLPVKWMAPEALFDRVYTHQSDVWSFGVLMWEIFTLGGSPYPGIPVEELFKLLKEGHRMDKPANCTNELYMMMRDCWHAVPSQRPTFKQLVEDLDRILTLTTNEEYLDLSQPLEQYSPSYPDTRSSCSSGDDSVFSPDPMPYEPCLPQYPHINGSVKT

Ret = Ret (Homo sapiens (Human), UniProt P07949); assay: Kinase inhibition assay (KinaseProfiler, 33P-ATP); format: biochemical
Sequence of Ret (P07949 29-1114): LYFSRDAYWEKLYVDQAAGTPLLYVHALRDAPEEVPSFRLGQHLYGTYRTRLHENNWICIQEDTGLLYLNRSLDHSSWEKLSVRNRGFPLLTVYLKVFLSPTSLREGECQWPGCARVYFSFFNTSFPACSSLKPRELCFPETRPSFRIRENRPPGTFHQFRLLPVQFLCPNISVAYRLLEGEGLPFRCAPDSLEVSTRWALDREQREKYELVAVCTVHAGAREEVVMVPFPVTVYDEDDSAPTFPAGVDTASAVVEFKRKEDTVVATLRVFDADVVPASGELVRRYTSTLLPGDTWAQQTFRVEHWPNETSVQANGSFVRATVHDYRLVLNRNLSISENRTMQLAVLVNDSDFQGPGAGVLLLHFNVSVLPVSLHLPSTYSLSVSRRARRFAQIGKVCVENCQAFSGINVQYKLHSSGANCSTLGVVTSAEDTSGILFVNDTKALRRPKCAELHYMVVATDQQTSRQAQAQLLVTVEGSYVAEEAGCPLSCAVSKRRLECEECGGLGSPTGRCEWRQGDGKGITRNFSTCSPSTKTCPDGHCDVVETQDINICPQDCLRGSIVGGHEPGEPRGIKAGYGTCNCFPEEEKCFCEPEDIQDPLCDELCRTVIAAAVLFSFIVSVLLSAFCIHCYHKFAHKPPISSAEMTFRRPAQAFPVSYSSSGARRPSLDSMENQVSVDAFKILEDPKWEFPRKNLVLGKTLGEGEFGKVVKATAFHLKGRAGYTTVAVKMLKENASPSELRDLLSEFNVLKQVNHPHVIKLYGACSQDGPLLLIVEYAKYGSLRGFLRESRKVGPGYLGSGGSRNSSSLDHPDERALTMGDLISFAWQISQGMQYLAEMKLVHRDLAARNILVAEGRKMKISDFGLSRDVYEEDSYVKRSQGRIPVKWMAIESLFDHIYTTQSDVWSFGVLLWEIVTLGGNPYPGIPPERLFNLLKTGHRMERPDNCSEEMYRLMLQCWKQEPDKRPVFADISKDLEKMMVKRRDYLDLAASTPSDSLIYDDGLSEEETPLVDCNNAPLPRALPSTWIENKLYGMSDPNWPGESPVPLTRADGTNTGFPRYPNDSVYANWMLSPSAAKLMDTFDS

Txk = Txk (Homo sapiens (Human), UniProt P42681); assay: Kinase inhibition assay (KinaseProfiler, 33P-ATP); format: biochemical; conditions: Txk(h), read-out: The percentage of the remaining active protein
PANC-1 = assay: Cell proliferation inhibition assay (MTT); format: cell-based; conditions: Homo sapiens, 72 hours, read-out: Proliferation inhibitory activity IC50
ALK2(h) = ALK2(h) (Homo sapiens (Human), UniProt Q04771); assay: Kinase inhibition assay (KinaseProfiler, 33P-ATP); format: biochemical; conditions: read-out: The percentage of the remaining active protein
ALK4(h) = ALK4(h) (Homo sapiens (Human), UniProt P36896); assay: Kinase inhibition assay (KinaseProfiler, 33P-ATP); format: biochemical; conditions: read-out: The percentage of the remaining active protein
CaMKIIγ(h) = CaMKIIγ(h) (Homo sapiens (Human), UniProt Q13555); assay: Kinase inhibition assay (KinaseProfiler, 33P-ATP); format: biochemical; conditions: read-out: The percentage of the remaining active protein
CaMKIV(h) = CaMKIV(h) (Homo sapiens (Human), UniProt Q16566); assay: Kinase inhibition assay (KinaseProfiler, 33P-ATP); format: biochemical; conditions: read-out: The percentage of the remaining active protein
CDK2/cyclinA(h) = CDK2/cyclinA(h) (Homo sapiens (Human), UniProt P24941); assay: Kinase inhibition assay (KinaseProfiler, 33P-ATP); format: biochemical; conditions: read-out: The percentage of the remaining active protein
CDK4/cyclinD3(h) = CDK4/cyclinD3(h) (Homo sapiens (Human), UniProt P11802); assay: Kinase inhibition assay (KinaseProfiler, 33P-ATP); format: biochemical; conditions: read-out: The percentage of the remaining active protein
CHK2(I157T)(h) = CHK2(I157T)(h) (Homo sapiens (Human), UniProt O96017, I157T); assay: Kinase inhibition assay (KinaseProfiler, 33P-ATP); format: biochemical; conditions: read-out: The percentage of the remaining active protein
DYRK1A(h) = DYRK1A(h) (Homo sapiens (Human), UniProt Q13627); assay: Kinase inhibition assay (KinaseProfiler, 33P-ATP); format: biochemical; conditions: read-out: The percentage of the remaining active protein
GRK7(h) = GRK7(h) (Homo sapiens (Human), UniProt Q8WTQ7); assay: Kinase inhibition assay (KinaseProfiler, 33P-ATP); format: biochemical; conditions: read-out: The percentage of the remaining active protein
HIPK2(h) = HIPK2(h) (Homo sapiens (Human), UniProt Q9H2X6); assay: Kinase inhibition assay (KinaseProfiler, 33P-ATP); format: biochemical; conditions: read-out: The percentage of the remaining active protein
IR(h) = IR(h) (Homo sapiens (Human), UniProt P06213); assay: Kinase inhibition assay (KinaseProfiler, 33P-ATP); format: biochemical; conditions: read-out: The percentage of the remaining active protein
IRR(h) = IRR(h) (Homo sapiens (Human), UniProt P14616); assay: Kinase inhibition assay (KinaseProfiler, 33P-ATP); format: biochemical; conditions: read-out: The percentage of the remaining active protein
MAPKAP-K2(h) = MAPKAP-K2(h) (Homo sapiens (Human), UniProt P49137); assay: Kinase inhibition assay (KinaseProfiler, 33P-ATP); format: biochemical; conditions: read-out: The percentage of the remaining active protein
Met(D1246H)(h) = Met(D1246H)(h) (Homo sapiens (Human), UniProt P08581, D1246H); assay: Kinase inhibition assay (KinaseProfiler, 33P-ATP); format: biochemical; conditions: read-out: The percentage of the remaining active protein
MSK2(h) = MSK2(h) (Homo sapiens (Human), UniProt O75676); assay: Kinase inhibition assay (KinaseProfiler, 33P-ATP); format: biochemical; conditions: read-out: The percentage of the remaining active protein
Sequence of MSK2(h) (O75676 whole entry): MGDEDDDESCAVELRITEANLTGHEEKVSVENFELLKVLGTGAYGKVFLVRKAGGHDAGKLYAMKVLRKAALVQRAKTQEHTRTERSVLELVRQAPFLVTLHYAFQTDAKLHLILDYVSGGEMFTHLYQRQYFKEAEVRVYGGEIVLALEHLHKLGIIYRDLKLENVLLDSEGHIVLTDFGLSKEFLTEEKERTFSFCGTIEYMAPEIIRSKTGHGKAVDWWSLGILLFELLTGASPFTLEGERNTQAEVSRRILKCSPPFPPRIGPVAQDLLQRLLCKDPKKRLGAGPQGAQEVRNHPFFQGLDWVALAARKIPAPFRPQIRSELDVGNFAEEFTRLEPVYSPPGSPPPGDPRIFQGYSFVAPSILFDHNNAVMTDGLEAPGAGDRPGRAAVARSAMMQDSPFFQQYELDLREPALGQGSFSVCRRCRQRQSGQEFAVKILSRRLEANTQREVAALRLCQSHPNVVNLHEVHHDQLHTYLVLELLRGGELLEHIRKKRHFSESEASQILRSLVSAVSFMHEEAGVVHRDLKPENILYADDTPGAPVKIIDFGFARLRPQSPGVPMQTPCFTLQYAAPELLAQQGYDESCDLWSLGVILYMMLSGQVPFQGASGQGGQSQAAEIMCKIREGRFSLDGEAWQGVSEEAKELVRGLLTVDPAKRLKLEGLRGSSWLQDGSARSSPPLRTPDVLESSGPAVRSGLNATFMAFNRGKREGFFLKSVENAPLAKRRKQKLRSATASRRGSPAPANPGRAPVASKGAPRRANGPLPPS

MSSK1(h) = MSSK1(h) (Homo sapiens (Human), UniProt Q9UPE1); assay: Kinase inhibition assay (KinaseProfiler, 33P-ATP); format: biochemical; conditions: read-out: The percentage of the remaining active protein
MST4(h) = MST4(h) (Homo sapiens (Human), UniProt Q9P289); assay: Kinase inhibition assay (KinaseProfiler, 33P-ATP); format: biochemical; conditions: read-out: The percentage of the remaining active protein
PASK(h) = PASK(h) (Homo sapiens (Human), UniProt Q96RG2); assay: Kinase inhibition assay (KinaseProfiler, 33P-ATP); format: biochemical; conditions: read-out: The percentage of the remaining active protein
Ret(V804M)(h) = Ret(V804M)(h) (Homo sapiens (Human), UniProt P07949, V804M); assay: Kinase inhibition assay (KinaseProfiler, 33P-ATP); format: biochemical; conditions: read-out: The percentage of the remaining active protein
Sequence of Ret(V804M)(h) (P07949 29-1114 V804M): as the sequence (P07949 29-1114) above, with V776M counted along it

Rsk3(h) = Rsk3(h) (Homo sapiens (Human), UniProt Q15349); assay: Kinase inhibition assay (KinaseProfiler, 33P-ATP); format: biochemical; conditions: read-out: The percentage of the remaining active protein
Sequence of Rsk3(h) (Q15349 whole entry): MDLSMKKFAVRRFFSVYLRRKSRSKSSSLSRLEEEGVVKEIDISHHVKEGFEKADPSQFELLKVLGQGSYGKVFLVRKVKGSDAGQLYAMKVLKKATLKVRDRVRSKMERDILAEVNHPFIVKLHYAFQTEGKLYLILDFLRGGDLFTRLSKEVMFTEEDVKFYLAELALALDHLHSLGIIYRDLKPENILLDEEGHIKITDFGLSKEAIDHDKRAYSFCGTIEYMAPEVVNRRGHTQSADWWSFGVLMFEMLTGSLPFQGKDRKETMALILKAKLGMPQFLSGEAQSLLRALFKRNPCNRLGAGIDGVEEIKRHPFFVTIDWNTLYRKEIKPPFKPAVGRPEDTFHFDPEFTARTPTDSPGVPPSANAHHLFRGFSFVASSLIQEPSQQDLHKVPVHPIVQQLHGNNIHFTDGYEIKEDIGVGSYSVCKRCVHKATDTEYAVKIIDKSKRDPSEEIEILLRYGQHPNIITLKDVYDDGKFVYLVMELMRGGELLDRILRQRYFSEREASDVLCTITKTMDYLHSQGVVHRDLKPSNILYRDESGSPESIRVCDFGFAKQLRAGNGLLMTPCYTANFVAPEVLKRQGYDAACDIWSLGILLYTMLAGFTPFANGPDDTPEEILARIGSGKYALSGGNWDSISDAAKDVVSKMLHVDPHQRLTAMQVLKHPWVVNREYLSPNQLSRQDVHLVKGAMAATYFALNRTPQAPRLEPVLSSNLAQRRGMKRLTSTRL

TrkC(h) = TrkC(h) (Homo sapiens (Human), UniProt Q16288); assay: Kinase inhibition assay (KinaseProfiler, 33P-ATP); format: biochemical; conditions: read-out: The percentage of the remaining active protein
TYK2(h) = TYK2(h) (Homo sapiens (Human), UniProt P29597); assay: Kinase inhibition assay (KinaseProfiler, 33P-ATP); format: biochemical; conditions: read-out: The percentage of the remaining active protein
WNK3(h) = WNK3(h) (Homo sapiens (Human), UniProt Q9BYP7); assay: Kinase inhibition assay (KinaseProfiler, 33P-ATP); format: biochemical; conditions: read-out: The percentage of the remaining active protein
ATM(h) = ATM(h) (Homo sapiens (Human), UniProt Q13315); assay: Kinase inhibition assay (KinaseProfiler, 33P-ATP); format: biochemical; conditions: read-out: The percentage of the remaining active protein
PI3KC2g(h) = PI3KC2g(h) (Homo sapiens (Human), UniProt O75747); assay: Kinase inhibition assay (KinaseProfiler, 33P-ATP); format: biochemical; conditions: read-out: The percentage of the remaining active protein
Sequence of PI3KC2g(h) (O75747 whole entry): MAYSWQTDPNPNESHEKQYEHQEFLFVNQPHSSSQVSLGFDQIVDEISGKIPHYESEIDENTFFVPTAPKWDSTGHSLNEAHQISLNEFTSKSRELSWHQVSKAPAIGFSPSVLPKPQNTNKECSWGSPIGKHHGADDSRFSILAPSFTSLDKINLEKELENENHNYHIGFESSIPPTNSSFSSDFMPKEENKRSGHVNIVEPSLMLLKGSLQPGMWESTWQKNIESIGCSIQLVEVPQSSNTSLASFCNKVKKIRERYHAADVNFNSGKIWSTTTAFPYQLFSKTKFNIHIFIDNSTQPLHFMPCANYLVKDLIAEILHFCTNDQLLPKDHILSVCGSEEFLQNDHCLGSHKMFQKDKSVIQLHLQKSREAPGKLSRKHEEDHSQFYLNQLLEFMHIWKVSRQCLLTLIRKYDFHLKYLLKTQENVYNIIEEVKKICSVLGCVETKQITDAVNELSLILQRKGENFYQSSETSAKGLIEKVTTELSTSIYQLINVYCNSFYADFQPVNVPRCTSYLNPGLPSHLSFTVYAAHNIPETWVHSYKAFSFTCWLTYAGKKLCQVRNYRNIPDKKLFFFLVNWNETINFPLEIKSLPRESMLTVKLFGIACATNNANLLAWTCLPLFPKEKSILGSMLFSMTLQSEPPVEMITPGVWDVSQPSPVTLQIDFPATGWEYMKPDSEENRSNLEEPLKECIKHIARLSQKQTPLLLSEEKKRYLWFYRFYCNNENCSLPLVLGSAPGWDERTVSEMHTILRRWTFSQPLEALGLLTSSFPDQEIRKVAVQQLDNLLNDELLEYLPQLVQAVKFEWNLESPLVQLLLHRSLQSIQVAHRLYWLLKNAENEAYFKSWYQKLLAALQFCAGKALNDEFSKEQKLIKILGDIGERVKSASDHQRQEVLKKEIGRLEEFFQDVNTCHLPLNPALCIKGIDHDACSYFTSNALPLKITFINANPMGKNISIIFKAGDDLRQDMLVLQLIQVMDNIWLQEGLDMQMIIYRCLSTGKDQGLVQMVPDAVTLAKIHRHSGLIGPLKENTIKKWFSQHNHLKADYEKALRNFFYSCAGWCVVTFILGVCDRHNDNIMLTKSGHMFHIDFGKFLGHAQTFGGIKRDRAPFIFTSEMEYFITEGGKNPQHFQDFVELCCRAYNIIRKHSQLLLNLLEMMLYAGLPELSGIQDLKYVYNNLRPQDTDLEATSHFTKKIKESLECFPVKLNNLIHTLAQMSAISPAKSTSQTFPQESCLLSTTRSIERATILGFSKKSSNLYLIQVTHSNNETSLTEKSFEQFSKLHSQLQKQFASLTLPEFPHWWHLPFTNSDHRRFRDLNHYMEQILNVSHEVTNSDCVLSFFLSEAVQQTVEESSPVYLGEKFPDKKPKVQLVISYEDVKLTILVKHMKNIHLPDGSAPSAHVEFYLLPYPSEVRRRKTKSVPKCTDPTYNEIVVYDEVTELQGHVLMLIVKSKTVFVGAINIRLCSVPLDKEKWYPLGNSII

PIP5K1g(h) = PIP5K1g(h) (Homo sapiens (Human), UniProt O60331); assay: Kinase inhibition assay (KinaseProfiler, 33P-ATP); format: biochemical; conditions: read-out: The percentage of the remaining active protein

IC50 (THP-1): 7380 nM
SMILES: Cc1ccc(NC(=O)c2cccc(C(F)(F)F)c2)cc1C#Cc1nn(C2CCN(C)CC2)c2ncnc(N)c12 [Compound 31]
IC50 (H4): 1810 nM

remaining activity at 10 µM (FGFR2; FGFR2(h), 10 μM, read-out: The percentage of the remaining active protein): 0%
IC50 (FGFR2; FGFR2, ATP at Km): 40 nM
remaining activity at 10 µM (Ret; Ret(h), 10 μM, read-out: The percentage of the remaining active protein): 2%
IC50 (Ret; Ret, ATP at Km): 4 nM
remaining activity at 10 µM (Txk): 1%
IC50 (PANC-1): 1700 to 5000 nM
remaining activity at 10 µM (ALK2(h)): 77%
remaining activity at 10 µM (ALK4(h)): 79%
remaining activity at 10 µM (CaMKIIγ(h)): 90%
remaining activity at 10 µM (CaMKIV(h)): 93%
remaining activity at 10 µM (CDK2/cyclinA(h)): 100%
remaining activity at 10 µM (CDK4/cyclinD3(h)): 86%
remaining activity at 10 µM (CHK2(I157T)(h)): 103%
remaining activity at 10 µM (DYRK1A(h)): 95%
remaining activity at 10 µM (GRK7(h)): 101%
remaining activity at 10 µM (HIPK2(h)): 99%
remaining activity at 10 µM (IR(h)): 97%
remaining activity at 10 µM (IRR(h)): 107%
remaining activity at 10 µM (MAPKAP-K2(h)): 104%
remaining activity at 10 µM (Met(D1246H)(h)): 124%
remaining activity at 10 µM (MSK2(h)): 70%
remaining activity at 10 µM (MSSK1(h)): 56%
remaining activity at 10 µM (MST4(h)): 73%
remaining activity at 10 µM (PASK(h)): 113%
remaining activity at 10 µM (Ret(V804M)(h)): -2%
remaining activity at 10 µM (Rsk3(h)): 38%
remaining activity at 10 µM (TrkC(h)): 17%
remaining activity at 10 µM (TYK2(h)): 36%
remaining activity at 10 µM (WNK3(h)): 39%
remaining activity at 10 µM (ATM(h)): 102%
remaining activity at 10 µM (PI3KC2g(h)): 98%
remaining activity at 10 µM (PIP5K1g(h)): 98%
SMILES: Cc1ccc(NC(=O)c2ccc(C)c(C(F)(F)F)c2)cc1C#Cc1nn([C@H]2CC[C@H](O)CC2)c2ncnc(N)c12 [Compound 93]
